Experimental data published in patent US6333330A, “Pyrazolopyrimidinone CGMP PDE5 inhibitors for the treatment of sexual dysfunction” (Pfizer Inc., priority 1998, dated 2001).

System: cGMP PDE5
Test: In vitro PDE inhibitory activity against cGMP PDE5 (IC50)
Assay type: biochemical
Details: table of Examples, read-out: IC50 (in vitro activities as inhibitors of cGMP PDE5)
Experimental: In vitro PDE inhibitory activities against cyclic guanosine 3', 5'-monophosphate (cGMP) and cyclic adenosine 3',5'-monophosphate (cAMP) phosphodiesterases were determined by measurement of their IC50 values (the concentration of compound required for 50% inhibition of enzyme activity).
The required PDE enzymes were isolated from a variety of sources, including human corpus cavernosum, human and rabbit platelets, human cardiac ventricle, human skeletal muscle and bovine retina, essentially by the method of W. J. Thompson and M. M. Appleman (Biochem., 1971, 10, 311). In particular, the cGMP-specific PDE (PDE5) and the cGMP-inhibited cAMP PDE (PDE3) were obtained from human corpus cavernosum tissue, human platelets or rabbit platelets; the cGMP-stimulated PDE (PDE2) was obtained from human corpus cavernosum; the calcium/calmodulin (Ca/CAM)-dependent PDE (PDE1) from human cardiac ventricle; the cAMP-specific PDE (PDE4) from human skeletal is muscle; and the photoreceptor PDE (PDE6) from bovine retina.
Assays were performed using a modification of the "batch" method of W. J. Thompson et al. (Biochem., 1979, 18, 5228).

| SMILES | IC50 |
| --- | --- |
| CCOc1ccc(S(=O)(=O)N2CCN(C)CC2)cc1-c1nc2c(C(=O)NC)nn(Cc3ccccc3)c2c(=O)[nH]1 [Example 19, 1-Benzyl-5-[2-ethoxy-5-(4-methylpiperazin-1-ylsulphonyl)]-7-oxo-1,6-dihydro-1H-pyrazolo[4,3-d]pyrimidine-3-N-methylcarboxamide] | 3.4 nM |
| CCOc1ncc(S(=O)(=O)N2CCN(CC)CC2)cc1-c1nc2c(-c3cccnc3)n(Cc3ncccn3)nc2c(=O)[nH]1 [Example 42] | 2.26 nM |
| CCCOc1ccc(S(=O)(=O)N2CCN(C)CC2)cc1-c1nc2c(C(=O)NC)nn(Cc3cccnc3)c2c(=O)[nH]1 [Example 8] | 4.1 nM |
| CCCOc1ccc(S(=O)(=O)N2CCN(CCO)CC2)cc1-c1nc2c(C(N)=O)nn(Cc3ccccn3)c2c(=O)[nH]1 [Example 5] | 2.8 nM |
| CCN1CCN(S(=O)(=O)c2cnc(OCCOC)c(-c3nc4c(C(N)=O)nn(Cc5ccccn5)c4c(=O)[nH]3)c2)CC1 [Example 33, 5-[5-(4-Ethylpiperazin-1-ylsulphonyl)-2-(2-methoxyethoxy)pyridin-3-yl]-7-oxo-1-(pyridin-2-yl)methyl-1,6-dihydro-1H-pyrazolo[4,3-d]pyrimidine-3-carboxamide] | 2.8 nM |
